For assay [1], the target named is Calcium-activated potassium channel subunit alpha-1 (Homo sapiens, UniProt Q12791, G803D/N806K). The assay is described as follows: Activation of hyperactive human BKca channel G803D/N806K mutant transfected in human AD-293 cells incubated for 20 to 30 mins by Flexstation3 multimode microplate reader analysis. The class given is cell-based.
Assay [2] deals with T1, Calcium-activated potassium channel subunit alpha-1 (Homo sapiens, UniProt Q12791). The assay is described as follows: Activation of BKca channel (unknown origin) by cell based method.
A further assay concerns Urinary bladder. The assay is described as follows: Induction of relaxation in Sprague-Dawley rat urinary bladder strips assessed as reduction in contraction. The class given is functional, tissue-based.
Assay [3] deals with Calcium-activated potassium channel subunit alpha-1 (Homo sapiens), Q12791 [UNDEFINED MUTATION]. The assay is described as follows: Activation of hyperactive human BKca channel G803D/N806K mutant transfected in human AD-293 cells assessed as maximum relative fluorescence value at 5 uM preincubated for 15 mins followed by Tl+ stimulus buffer addition and measured after 80 sec by Flexstation3 multimode microplate reader analysis relative to control. The class given is cell-based. The conditions noted are these: time 980.0 sec.

In assay [4] the target is T1, Calcium-activated potassium channel subunit alpha-1. The assay is described as follows: Activation of BKca channel (unknown origin) by cell-based fluorescence assay.
Assay [5] shares this target. The assay is described as follows: Activation of human BK ca channel expressed in CHO cells by whole cell patch clamp method. The class given is cell-based.

For orientation: pEC50 means the EC50 on a negative log10 scale, so that one unit is a factor of ten.

Structures are written as SMILES. pEC50: −log10 of the molar value.

T1 sequence (Q12791 whole entry): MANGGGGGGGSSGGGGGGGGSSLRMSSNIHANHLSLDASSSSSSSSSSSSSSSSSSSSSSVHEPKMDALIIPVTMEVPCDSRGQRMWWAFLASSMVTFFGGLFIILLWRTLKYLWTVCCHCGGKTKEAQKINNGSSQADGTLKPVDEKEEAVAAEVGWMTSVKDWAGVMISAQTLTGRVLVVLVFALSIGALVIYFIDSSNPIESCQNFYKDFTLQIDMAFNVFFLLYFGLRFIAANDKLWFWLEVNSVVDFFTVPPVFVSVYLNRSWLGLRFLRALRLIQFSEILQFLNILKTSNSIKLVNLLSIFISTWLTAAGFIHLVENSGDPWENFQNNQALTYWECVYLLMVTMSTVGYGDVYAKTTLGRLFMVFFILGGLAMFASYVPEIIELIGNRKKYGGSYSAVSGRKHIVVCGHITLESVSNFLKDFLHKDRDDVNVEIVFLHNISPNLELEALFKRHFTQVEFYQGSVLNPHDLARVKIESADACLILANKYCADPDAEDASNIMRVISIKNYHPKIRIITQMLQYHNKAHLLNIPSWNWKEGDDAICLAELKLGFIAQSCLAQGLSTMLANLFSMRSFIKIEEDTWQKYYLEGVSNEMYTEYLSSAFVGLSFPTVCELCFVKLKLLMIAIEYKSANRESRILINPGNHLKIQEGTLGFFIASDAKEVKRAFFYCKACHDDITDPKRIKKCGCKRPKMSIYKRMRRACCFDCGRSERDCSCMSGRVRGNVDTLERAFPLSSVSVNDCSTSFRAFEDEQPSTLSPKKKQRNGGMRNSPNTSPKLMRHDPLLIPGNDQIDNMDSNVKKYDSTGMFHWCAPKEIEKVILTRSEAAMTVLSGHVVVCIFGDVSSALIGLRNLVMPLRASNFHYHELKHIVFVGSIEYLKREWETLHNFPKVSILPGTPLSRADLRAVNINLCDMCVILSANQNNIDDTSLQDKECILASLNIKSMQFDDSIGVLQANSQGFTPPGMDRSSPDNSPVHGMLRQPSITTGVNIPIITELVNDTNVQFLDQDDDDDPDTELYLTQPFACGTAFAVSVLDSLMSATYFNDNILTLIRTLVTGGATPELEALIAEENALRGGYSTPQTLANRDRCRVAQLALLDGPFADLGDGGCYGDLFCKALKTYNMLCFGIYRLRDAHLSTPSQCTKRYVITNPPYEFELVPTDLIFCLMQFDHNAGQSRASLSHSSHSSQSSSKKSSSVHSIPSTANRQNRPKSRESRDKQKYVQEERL
Chain of Calcium-activated potassium channel subunit alpha-1 (Homo sapiens), Q12791 [UNDEFINED MUTATION] (Q12791 whole entry, looked up, stated change not applied): as the sequence (Q12791 whole entry) above
Chain of Calcium-activated potassium channel subunit alpha-1 (Homo sapiens, UniProt Q12791, G803D/N806K) (Q12791 whole entry, looked up, stated change not applied): as the sequence (Q12791 whole entry) above

For the compound `Oc1ccc(-c2onc(C(F)(F)F)c2-c2ccc(Cl)cc2)c(O)c1`, the pEC50 in assay [1] is 5.41.
With `O=C(O)c1ccc(Cl)c2c1[nH]c1c3ccc(C(F)(F)F)cc3oc12`, the pEC50 was 5.27 in assay [2], 5.60 in the assay with Urinary bladder and 5.27 in assay [4]. Further, in assay [3], the Activity was determined as 34.9%.
On to `CCc1oc2ccccc2c1C(=O)c1cc(Br)c(O)c(Br)c1` [BENZBROMARONE], for which, in assay [5], the pEC50 is 3.95.

Source of the values: ChEMBL document CHEMBL6153133, “Discovery of Diphenyl Ether Derivatives as Novel BKCa Channel Activators: Structure-Activity Relationship, Cryo-EM Complex Structures, and In Vivo Animal Studies” (J Med Chem, 2025).
